In US20260294885A1, “TREATMENT OF INFLAMMATORY CONDITIONS COMPRISING IMU-856” (IMMUNIC AG, priority 2023, published 2026):
Where two headings read alike, the source gives them in different places.

How the values were obtained:
[1] = tested on: other histone deacetylases (HDACs); test: Enzymatic activity of other histone deacetylases; format: biochemical
[2] = Pharmacokinetics in celiac disease patients, Part C; format: in vivo, human; conditions: for Cmax at 192 h / Tmax at 192 h / AUC(0-t) at 192 h: human, in vivo, Day 8, mean; for AUC(0-t) at 192 h: read-out: AUC0-t last
Protocol: (§1) FIG. 1 illustrates the flow chart of part C in celiac disease (CelD) designed as proof-of-concept study with a gluten challenge trial. Part C was planned to include a well-controlled celiac disease patient population: The patients were 100% seronegative, indicating absence of ongoing substantial gluten exposure and was performed at sites in Australia and New Zealand. Part C was designed to assess safety, tolerability and pharmacokinetics of IMU-856 and measured also histologic changes, blood biomarkers, nutrient uptake and disease-related symptoms.

[3] = tested on: patients with celiac disease; test: Duodenal biopsy histology with gluten challenge (villous height, Vh:Cd, Q-MARSH), Part C; format: in vivo, human; conditions: for reduction in villous height: two weeks of 6 g/day gluten challenge; for mean change in villous height: baseline to Day 29, gluten challenge 6 g/day
Protocol: (§2) In Part A, healthy subjects were randomised to single ascending doses of IMU-856 (10 mg to 160 mg) or placebo. In Part B healthy subjects were randomised to multiple once-daily doses of IMU-856 (40, 80, and 160 mg) or placebo for 14 days. Part C randomised patients with celiac disease who were on a gluten-free diet to multiple once-daily doses of IMU-856 (80 mg and 160 mg) or placebo for 28 days; a once-daily gluten challenge (6 g) was introduced on Day 14 and ended on Day 28. 71 healthy subjects were enrolled in Part A and B (N=19 placebo and N=52 IMU-856) and 43 patients with CelD in Part C (N=14 placebo; N=14 for 80 mg, and N=15 for 160 mg). In Parts A and B, treatment-emergent adverse events (TEAEs) occurred in 24 (73%) and 15 (79%) of subjects receiving any dose of IMU-856 compared to 6 (50%) and 5 (71%) with placebo, respectively. […] In Part C, the most common adverse events with any dose of IMU-856 by preferred term were headache (13 [45%]), nausea (9 [31%]), diarrhoea (8 [28%]), and abdominal distension (7 [24%]). […] In Part C, the mean change in villous height from baseline to Day 29 with 80 mg and 160 mg was −20.9±34.8 μm, and −22.5±51.1 μm, respectively, and −60.3±52.2 μm with placebo. […] Mean change in plasma citrulline increased with 80 mg and 160 mg from baseline to Day 14 (2.4±6.2 and 6.1±5.9 μmol/L, respectively) and from baseline to Day 29 (2.8±7.6 and 2.2±5.3 μmol/L, respectively), but not with placebo (−2.7±5.6 and −4.0±6.5 μmol/L). […] Mean increase in zinc levels from baseline to Day 29 with 80 mg and 160 mg were 0.3±1.4 and 0.9±2.1 μmol/L compared to a mean decrease in placebo (−0.9±2.1 μmol/L). Gluten-induced symptoms were also attenuated by IMU-856.
as §1

[4] = molecular target: SIRT6 (Homo sapiens, UniProt Q8N6T7); test: Inhibition of SIRT6 deacetylation of acetylated H3K56, in vitro cell free; format: biochemical
[5] = tested on: patients with celiac disease; test: Phase Ib safety in patients with celiac disease (Part C); format: in vivo, human
Protocol: as §2, §1

[6] = tested on: colorectal adenocarcinoma-2 (Caco-2) cells; test: TEER recovery across a Caco-2 monolayer following inflammation with TNF-α or IL-6; format: cell-based, human
From the text: In one TEER model, tight junction (TJ)-related proteins were investigated, and a normalisation of TJ proteins (claudin (Cldn)-1 and claudin-2) was observed.
CaCo2 cell line is derived from human epithelial cells from the colon. They are frequently used to mimic intestinal barrier function to either look at permeability of drugs or to look at is functional resistance. For the present experiment, the CaCo2 cells were used to mimic the […] LEFT OUT] and investigate the effect of IMU-856 on this by measuring the electrical transepithelial resistance (TEER). […] For this CaCo2 cells, cultivated in a 6-well trans well plate on top of the membrane that has small pores that prevent the cells from going through but allow molecules and nutrients to pass. […] Then, cells were washed and fresh medium with vehicle or IMU-856 was given. TEER was measured before and after challenge at different time points. For correct measurement, the shorter electrode is inserted into the transwell chamber (without touching the cells), and the longer electrode is inserted in the outer well.

[7] = tested on: healthy subjects and patients with CelD; test: Clinical safety, whole study; format: in vivo, human
Protocol: as §2

[8] = tested on: healthy subjects; test: Phase I safety in healthy subjects (Parts A and B); format: in vivo, human
Protocol: as §2

[9] = Part A, any single dose (10 mg to 160 mg)
[10] = Part B, any dose (40, 80, 160 mg once daily, 14 days)

Chain of SIRT6 (Q8N6T7 whole entry): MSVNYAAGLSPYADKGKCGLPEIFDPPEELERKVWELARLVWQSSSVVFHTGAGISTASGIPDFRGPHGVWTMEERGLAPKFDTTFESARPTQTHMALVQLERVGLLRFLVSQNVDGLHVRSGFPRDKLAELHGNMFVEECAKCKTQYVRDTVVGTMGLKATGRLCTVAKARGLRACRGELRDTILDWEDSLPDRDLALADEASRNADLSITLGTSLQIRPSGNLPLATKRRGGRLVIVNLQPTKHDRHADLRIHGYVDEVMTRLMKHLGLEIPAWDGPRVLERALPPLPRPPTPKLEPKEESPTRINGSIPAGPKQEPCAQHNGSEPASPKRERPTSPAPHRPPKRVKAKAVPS

SMILES: Cn1c(COc2cc(C(F)(F)F)ccn2)nnc1[C@H]1CC[C@H](c2cnn([C@H]3CC[C@H](N4CC5(CCO5)C4)CC3)c2)CC1 [IMU-856, 6-(trans-4-(4-(trans-4-(4-methyl-5-(((4-(trifluoromethyl)pyridin-2-yl)oxy)methyl)-4H-1,2,4-triazol-3-yl)cyclohexyl)-1H-pyrazol-1-yl)cyclohexyl)-1-oxa-6-azaspiro[3.3]heptane]
- inhibition of enzymatic activity of other HDACs [1]: does not inhibit
- achievement of steady state ([2]; Part C): fast achievement of steady state
- dose linearity of plasma Cmax and AUC ([2]; Part C): linear pharmacokinetics with dose-proportional increase
- mean trough levels / exposure over dosing period ([2]; Part C): constant exposure within the whole dosing period
- Cmax at 192 h ([2]; IMU-856 80 mg): 354 ng/mL
- Tmax at 192 h ([2]; IMU-856 80 mg): 1.9 h
- AUC(0-t) at 192 h ([2]; IMU-856 80 mg): 1570 ng·h/mL
- Cmax at 192 h ([2]; IMU-856 160 mg): 766 ng/mL
- Tmax at 192 h ([2]; IMU-856 160 mg): 1.5 h
- AUC(0-t) at 192 h ([2]; IMU-856 160 mg): 3610 ng·h/mL
- reduction in villous height ([3]; 80 mg (N=11)): 20.9 μm
- mean change in villous height ([3]; 80 mg once daily): −20.9±34.8 μm
- reduction in villous height ([3]; 160 mg (N=13)): 22.5 μm
- mean change in villous height ([3]; 160 mg once daily): −22.5±51.1 μm
- villous height protection versus placebo ([3]; Baseline to Day 29): protects villous height as compared to placebo, reaching statistical significance
- patients with improvement in one Q-MARSH category ([3]; Day 29, after gluten challenge): two and Two
- Q-MARSH histological damage ([3]; change in Q-MARSH score between Baseline and Day 29): signals of preventing histological damage
- inhibition of deacetylase activity of SIRT6 [4]: selective inhibitor of the deacetylase activity
- deacetylation of H3K56 ([4]; in vitro cell free system): prevents the deacetylation
- serious adverse events [5]: 1
- abdominal distension (number) ([5]; any dose): 7
- abdominal distension (percentage) ([5]; any dose): 24%
- diarrhoea (number) ([5]; any dose): 8
- diarrhoea (percentage) ([5]; any dose): 28%
- headache (number) ([5]; any dose): 13
- headache (percentage) ([5]; any dose): 45%
- nausea (number) ([5]; any dose): 9
- nausea (percentage) ([5]; any dose): 31%
- recovery of TEER ([6]; following inflammation with IL-6): significantly accelerates the recovery
- recovery of TEER ([6]; following inflammation with TNF-α): significantly accelerates the recovery
- IMP-related serious or treatment-emergent adverse events ([7]; human, in vivo): no investigational medicinal product (IMP)-related serious or treatment-emergent adverse events
- dose-dependency in adverse events ([7]; human, in vivo): nor was there any dose-dependency in adverse events
- rates of TEAEs in non-disease related parameters versus placebo ([7]; human, in vivo): comparable between the active treatment groups and placebo
- safety and tolerability ([7]; human, in vivo): safe and well-tolerated
- dose-limiting toxicities, systematic safety laboratory changes or deaths ([7]; whole study): No dose-limiting toxicities, systematic safety laboratory changes or deaths
- relation of serious adverse events to IMU-856 ([7]; whole study): unrelated to IMU-856
- serious adverse events ([7]; whole study): Two
- subjects with TEAEs (number) [8, 9]: 24
- subjects with TEAEs (percentage) [8, 9]: 73%
- serious adverse events ([8]; Part B): 1
- subjects with TEAEs (number) [8, 10]: 15
- subjects with TEAEs (percentage) [8, 10]: 79%
- severity of TEAEs ([8]; Parts A and B): mild in severity
